Read-outs that look alike come from different tables or passages of the source.
Molecular target: T1, factor Xa (Homo sapiens, UniProt P00742)
T1 construct: an F Xa reagent consisting of a lyophilized plasma fraction containing factor Xa; purchased Siemens Healthcare Diagnostics (Berichrom heparin assay, F Xa reagent); host or cells: plasma fraction
Assay: Determination of the F Xa binding constant (Ki) of peptide aldehyde ligands, chromogenic assay with Berichrom heparin assay reagents, Dixon plot
Format: biochemical
Experimental: The kinetic data of the peptide aldehyde ligands were determined in chromogenic assay formats by measuring the rate of hydrolysis of chromogenic peptide substrates which compete with the peptide aldehyde ligands for binding to the active site of the particular enzyme, at various substrate concentrations and peptide aldehyde-ligand concentrations. The binding constant (Ki) was determined by a known method (Dixon, M., 1953, Biochem J, 55, 170-171).
The F Xa binding constant was determined using the reagents of the Berichrom® heparin assay from Siemens Healthcare Diagnostics. The Berichrom® heparin assay consists of: an F Xa reagent consisting of a lyophilized plasma fraction containing factor Xa, and additives such as Tris, NaCl, EDTA and preservatives, a chromogenic substrate reagent (Z-D-Leu-Gly-Arg-ANBA-methyl-amide), a dilution reagent for reconstitution, and a dextran sulfate reagent consisting of lyophilized dextran sulfate.
After reconstitution in 10 ml of dilution reagent, the dextran sulfate concentration is 0.02 g/l. The F Xa reagent is reconstituted with the reconstituted dextran sulfate reagent. The substrate reagent, after constitution with 2 ml of deionized water, contains 4 mmol/l Z-D-Leu-Gly-Arg-ANBA-methyl-amide. Dilutions of the substrate reagent were prepared with deionized water. The peptide aldehyde ligands prepared according to example 1 were dissolved in water and used as sample. The assays were carried out automatically in a BCS® XP coagulation analyzer (Siemens Healthcare Diagnostics, Marburg, Germany).
A reaction mix was mixed together as follows:
15 μl of sample (peptide aldehyde ligand B-r-G-R—H or B-f-P—R—H), […]
30 μl of substrate reagent (Z-D-Leu-Gly-Arg-ANBA-methyl-amide).
The reaction rate in mE/min was determined on the basis of the increase in optical density of the reaction mix at a wavelength of 405 nm. For this, the optical density of the reaction mixes was determined in a time interval from 10 to 70 seconds.

T1 sequence (P00742 235-488 limits assumed): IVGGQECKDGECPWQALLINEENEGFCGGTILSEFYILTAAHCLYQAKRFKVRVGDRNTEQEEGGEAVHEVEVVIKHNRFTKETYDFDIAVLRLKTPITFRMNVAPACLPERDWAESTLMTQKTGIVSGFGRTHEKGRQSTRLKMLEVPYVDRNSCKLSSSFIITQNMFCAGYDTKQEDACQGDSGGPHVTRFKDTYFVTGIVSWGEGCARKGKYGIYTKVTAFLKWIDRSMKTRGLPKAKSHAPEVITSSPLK
T1 sequence (P00742 41-179 partner limits assumed): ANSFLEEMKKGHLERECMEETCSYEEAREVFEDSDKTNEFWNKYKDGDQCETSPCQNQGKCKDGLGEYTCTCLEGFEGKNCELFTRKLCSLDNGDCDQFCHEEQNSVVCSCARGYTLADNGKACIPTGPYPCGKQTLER

N=C(N)NCCC[C@@H](C=O)NC(=O)CNC(=O)[C@@H](CCCNC(=N)N)NC(=O)CCC(=O)NCCCOCCOCCOCCCNC(=O)CCCC[C@@H]1SC[C@@H]2NC(=O)N[C@@H]21 [B-r-G-R-H, biotinyl-Ttds-D-Arg-Gly-Arg-H]
1/Reaction rate (CB-r-G-R-H 0.20380 μM, Csubstrate = 0.5 mM): 5.521 min/E
1/Reaction rate (CB-r-G-R-H 0.20380 μM, Csubstrate = 2 mM): 1.457 min/E
1/Reaction rate (CB-r-G-R-H 0.20380 μM, Csubstrate = 4 mM): 0.8262 min/E
1/Reaction rate (CB-r-G-R-H 0.32609 μM, Csubstrate = 0.5 mM): 6.13 min/E
1/Reaction rate (CB-r-G-R-H 0.32609 μM, Csubstrate = 2 mM): 1.612 min/E
1/Reaction rate (CB-r-G-R-H 0.32609 μM, Csubstrate = 4 mM): 0.9061 min/E
1/Reaction rate (CB-r-G-R-H 0.40761 μM, Csubstrate = 0.5 mM): 6.408 min/E
1/Reaction rate (CB-r-G-R-H 0.40761 μM, Csubstrate = 2 mM): 1.659 min/E
1/Reaction rate (CB-r-G-R-H 0.40761 μM, Csubstrate = 4 mM): 0.9259 min/E
1/Reaction rate (CB-r-G-R-H 0.65217 μM, Csubstrate = 0.5 mM): 7.754 min/E
1/Reaction rate (CB-r-G-R-H 0.65217 μM, Csubstrate = 2 mM): 1.975 min/E
1/Reaction rate (CB-r-G-R-H 0.65217 μM, Csubstrate = 4 mM): 1.099 min/E
1/Reaction rate (CB-r-G-R-H 0.81522 μM, Csubstrate = 0.5 mM): 8.403 min/E
1/Reaction rate (CB-r-G-R-H 0.81522 μM, Csubstrate = 2 mM): 2.115 min/E
1/Reaction rate (CB-r-G-R-H 0.81522 μM, Csubstrate = 4 mM): 1.177 min/E
1/Reaction rate (CB-r-G-R-H 1.30435 μM, Csubstrate = 0.5 mM): 12.05 min/E
1/Reaction rate (CB-r-G-R-H 1.30435 μM, Csubstrate = 2 mM): 2.802 min/E
1/Reaction rate (CB-r-G-R-H 1.30435 μM, Csubstrate = 4 mM): 1.476 min/E
1/Reaction rate (CB-r-G-R-H 1.63043 μM, Csubstrate = 0.5 mM): 13.97 min/E
1/Reaction rate (CB-r-G-R-H 1.63043 μM, Csubstrate = 2 mM): 3.147 min/E
1/Reaction rate (CB-r-G-R-H 1.63043 μM, Csubstrate = 4 mM): 1.679 min/E
1/Reaction rate (CB-r-G-R-H 2.60870 μM, Csubstrate = 0.5 mM): 20.14 min/E
1/Reaction rate (CB-r-G-R-H 2.60870 μM, Csubstrate = 2 mM): 4.627 min/E
1/Reaction rate (CB-r-G-R-H 2.60870 μM, Csubstrate = 4 mM): 2.274 min/E
1/Reaction rate (CB-r-G-R-H 3.26087 μM, Csubstrate = 0.5 mM): 26.42 min/E
1/Reaction rate (CB-r-G-R-H 3.26087 μM, Csubstrate = 2 mM): 5.52 min/E
1/Reaction rate (CB-r-G-R-H 3.26087 μM, Csubstrate = 4 mM): 2.728 min/E
1/Reaction rate (CB-r-G-R-H 4.89130 μM, Csubstrate = 0.5 mM): 37.79 min/E
1/Reaction rate (CB-r-G-R-H 4.89130 μM, Csubstrate = 2 mM): 8.244 min/E
1/Reaction rate (CB-r-G-R-H 4.89130 μM, Csubstrate = 4 mM): 3.745 min/E
1/Reaction rate (CB-r-G-R-H 6.52174 μM, Csubstrate = 0.5 mM): 52.69 min/E
1/Reaction rate (CB-r-G-R-H 6.52174 μM, Csubstrate = 2 mM): 10.45 min/E
1/Reaction rate (CB-r-G-R-H 6.52174 μM, Csubstrate = 4 mM): 4.819 min/E
1/Reaction rate (CB-r-G-R-H 8.15217 μM, Csubstrate = 0.5 mM): 62.32 min/E
1/Reaction rate (CB-r-G-R-H 8.15217 μM, Csubstrate = 2 mM): 12.99 min/E
1/Reaction rate (CB-r-G-R-H 8.15217 μM, Csubstrate = 4 mM): 5.669 min/E
1/Reaction rate (CB-r-G-R-H 13.04348 μM, Csubstrate = 0.5 mM): 98.11 min/E
1/Reaction rate (CB-r-G-R-H 13.04348 μM, Csubstrate = 2 mM): 19.61 min/E
1/Reaction rate (CB-r-G-R-H 13.04348 μM, Csubstrate = 4 mM): 8.47 min/E
Intersect of regression curve 1/reaction rate vs ligand concentration (Csubstrate 0.5 mM): 2.8743 min/E
Slope of regression curve 1/reaction rate vs ligand concentration (Csubstrate 0.5 mM): 7.3110 min/E μM
Intersect of regression curve 1/reaction rate vs ligand concentration (Csubstrate 2 mM): 1.0169 min/E
Slope of regression curve 1/reaction rate vs ligand concentration (Csubstrate 2 mM): 1.4375 min/E μM
Intersect of regression curve 1/reaction rate vs ligand concentration (Csubstrate 4 mM): 0.7187 min/E
Slope of regression curve 1/reaction rate vs ligand concentration (Csubstrate 4 mM): 0.6037 min/E μM
Ki (intersection of regression curves Csubstrate 2 and 0.5 mM, read-out: Ki2&3 F Xa binding constant): 316 nM
Ki (intersection of regression curves Csubstrate 4 and 0.5 mM, read-out: Ki1&3 F Xa binding constant): 321 nM
Ki (intersection of regression curves Csubstrate 4 and 2 mM, read-out: Ki1&2 F Xa binding constant): 358 nM
binding of the peptide aldehyde with F Xa (reversible or irreversible) (intersections of regression curves not on the x axis): reversible
Ki (read-out: average F Xa binding constant KiM): 332 nM
